No end group written: not given here.

Test [1] has as its target T1, Dvl PDZ domain (Dvl1 PDZ) (Mus musculus, UniProt P51141).
T1 sequence (P51141 248-337): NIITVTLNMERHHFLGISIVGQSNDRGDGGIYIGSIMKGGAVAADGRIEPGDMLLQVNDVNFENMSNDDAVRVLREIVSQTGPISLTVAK
Description: fluorescence polarization competition with Rox-DprC peptide. The test is classed as binding. (In general: Fluorescence polarisation rises when a labelled molecule tumbles more slowly, as on binding a larger partner.)

Test [2] addresses T1, Dvl PDZ domain (Dvl1 PDZ). Description: binding test shown only in supplement.
Test [3] has as its target T2, Dapper C-terminal peptide (Rox-DprC) (Xenopus laevis).
T2 chain: Rox-SGSLKLMTTV
Kind of test: fluorescence polarization.

For orientation: Ki means the dissociation constant of the complex between target and ligand, obtained from inhibition or displacement. Low readings indicate higher affinity, high ones lower affinity. In test [1], `CC1=C(CC(=O)O)c2cc(F)ccc2/C1=C\c1ccc(S(C)(=O)=O)cc1` [sulindac sulfone] returned an inhibitory constant (Ki) of 8 ± 0.2 µM.
Regarding `CSc1ccc(/C=C2/C(C)=C(CC(=O)O)c3cc(F)ccc32)cc1` [sulindac sulfide], in test [2], the “binding test shown only in supplement” value is listed as “binds to the PDZ domain with much weaker affinity (Figure S6)”.
Take `CC1=C(CC(=O)O)c2cc(F)ccc2/C1=C\c1ccc([S@@+](C)[O-])cc1` [sulindac]: the Ki in test [1] was found to be 10.7 ± 1.2 µM.

B1: Dishevelled PDZ domain (Dvl1) PDZ (protein)
chain: NIITVTLNMERHHFLGISIVGQSNDRGDGGIYIGSIMKGGAVAADGRIEPGDMLLQVNDVNFENMSNDDAVRVLREIVS
As usually defined, the Kd is the concentration at which binding is half-saturated. A high value points to lower affinity. On to B1, for which the Kd in test [3] was ~8 µM.

The values above are taken from paper PMC2978498 (Angewandte Chemie (International ed. in English), 2009).
